Here are results for twelve molecules from US6204005A, “Immunoassay for toxic congeners of polychlorinated biphenyls” (priority 1995, dated 2001).

In data set [1] the test system is anti-hapten antibody (sera of rabbits immunized with KLH-hapten I conjugate). As to the kind of experiment: Inhibition ELISA with BSA-Competitor 11 coating conjugate (Methods A,B). It is filed as binding, rabbit. Conditions: for I10 (mdl): Table 3, selected analytes, NR/>100 ppm, NR--No Assay Response. As for the experimental part:
A solution of the coating antigen, consisting of 100 ng of a BSA conjugate of Hapten I or Exemplified Competitor 11 above, in 50 μl of PBS (phosphate buffered saline, pH 7.4, 10 mM phosphate, 150 mM NaCl), was dispensed into each well of a 96-well microtiter plate (Dynatech Immulon-2 commercially available from Dynatech, Inc., Chantilly, Va.) and incubated at 28° C. (+/-0.5° C.) for 2 hours. The coating antigen solution was then removed from the wells and the plate was washed three times with PBS. All wash steps utilized a Cambridge Technology, Inc. Platewasher 260, commercially available from Cambridge Technology, Inc. Cambridge, Mass. The remaining active sites in the wells were blocked with a 150 μl solution of 1% BSA in PBS with 0.02% sodium azide for 2 hours at 28° C. After removal of the blocking solution the plate was washed three times with PBS. Serum stored at -20° C. was freshly thawed and diluted 100-250,000 fold with the 1% BSA in PBS/DT blocking buffer (PBS buffer containing 10% by volume dimethylformamide and 0.5% Triton X-100). This solution (50 μl/well) was then dispensed into replicate wells (3-6) on the plate, which was covered and incubated for 1 hour at room temperature (RT). After removal of the incubation solution the plate was washed three times with PBS. The labeled antibody, anti-rabbit IgG (whole molecule)--alkaline phosphatase conjugate, (Sigma No. A-8025 commercially available from Sigma Chemical Company, St. Louis, Mo.), diluted 1/500 with BSA/PBS, was added in a quantity of 50 μl/well and incubated for 1 hour at 28° C. After removal of the second antibody solution the plate was washed three times with PBS. The wells were then washed (one time) with 10 mM diethanolamine (pH 9.4) which contained 0.5 mM magnesium chloride. Substrate solution (50 μl; 10 mg p-nitrophenylphosphate in 10.0 ml of the diethanolamine/magnesium chloride) was added to each well and incubated for 30 minutes at 28° C. Sodium hydroxide (50 μl of a 0.05 N solution) was added to each of the wells to stop the reaction. The final Absorbance in each well was determined at 405 nm using a Cambridge Technologies, Inc. Model 750 Microplate Reader commercially available from Cambridge Technologies, Inc., Cambridge, Mass. The titer of the sera was determined by a Log Sera Dilution versus Absorbance plot and the EC50 value.
Inhibition ELISA followed the basic assay procedure described above with the following addition: The serum sample was diluted to its EC80 value (400-1000 fold) with the 1% BSA in PBS blocking buffer to which had been added 10% dimethylformamide, volume/volume (v/v), and 0.5% Triton® X-100 (PBS-DT). An aqueous analyte solution (e.g., Aroclor® 1248) was prepared by solution of the analyte in dimethylformamide followed by dilution to the required concentration in PBS-DT. The analyte solution was added to the antibody solution to achieve the desired concentration of analyte (typically 1 ppb-100 ppm) and the resulting solution was incubated overnight at room temperature. This solution (50 μl/well) was then dispensed into replicate wells (3-6) on the plate and the assay completed as above. The minimum detection limit (I10 ) and the I50 values were determined using a Log (Analyte Concentration in parts per billion--ppb) versus Absorbance or by converting absorbance to the B/Bo ratio where B=Sample Absorbance and Bo=Absorbance of the Blank Sample. […] This figure illustrates the significant improvement in PCB sensitivity as measured by both minimum detection limit (B/Bo=0.9) and assay range (B/Bo=0.5) on using a competitor versus a hapten as the competition reagent.
This assay format gave a minimum detection limit (I10) of approximately 0.2 ppm and an I50 of approximately 3 ppm.

Data set [2] deals with Hapten VII sera (polyclonal antibodies). As to the kind of experiment: Sera direct EIA with Hapten VII sera and competitor enzyme conjugate. It is filed as binding, mice. The protocol: The competitors A-E and Hapten VII were conjugated to the enzyme, amino modified Horseradish Peroxidase (HRP) (horseradish peroxidase commercially available from Sigma Chemical Co. (No. P-6782), St. Louis, Mo.; amino modified per R. Hsiao and H. Royer, Archives Biochem. Biophys., 198, 379-385 (1979) to give 6-24 free amines), using the carbodiimide mediated carboxyl activation procedure described for Hapten VII in Example 24. Hapten and competitor load were determined by UV/Vis spectroscopy, also as described for Hapten VII.
(§1) The direct EIA (immoblized antibody and competitor enzyme conjugate) was performed as follows. Serum or monoclonal antibody supernatant stored at -20° C. was diluted 1,000-40,000 fold with PBS which contained 0.1% Tween-20. This solution was dispensed (500 ul) into donkey anti-mouse second antibody coated tubes (DAM Tubes commercially available from Millipore Corp., Bedford, Mass.) and incubated at room temperature overnight. The antisera solution was decanted from the tubes and the tubes washed 3 times with distilled water. Non-specific sites in the tubes were blocked with 600 ul of BSA blocking buffer (EIA Blocking Buffer commercially available from Millipore Corp., Bedford, Mass.) and incubated for 2 hours at room temperature or overnight at 4° C. The blocking buffer was decanted and the tubes allowed to dry under ambient room conditions for at least 2 hours. The assay was performed by adding 500 ul of assay diluent (1% methanol (v/v) and 0.005% Tween-20 (w/v) in distilled water) to the required number of tubes followed by 10 ul of a methanol solution of the analyte (PCB congener). After a 5 minute incubation at room temperature, the solution was decanted and the tubes rinsed 3-4 times with tap water. The horseradish peroxidase competitor or Hapten VII conjugates were diluted 1,000-60,000 fold from 2-5 mg/ml stock solutions in PBS with conjugate diluent (Enzyme Conjugate Diluent commercially available from Millipore Corp., Bedford, Mass.). The enzyme conjugate (200 ul) was added to the tubes followed by a 5 minute incubation at room temperature. The conjugate solution was decanted and the tubes rinsed 3-4 times with tap water. Enzyme substrate solution (500 ul, KPL No. 50-76-04 commercially available from KPL Laboratories, Gaithersburg, Md.) was added and the tubes were incubated at room temperature for 5-15 minutes. The enzyme reaction was stopped with the addition of 500 ul of 1N HCl. The OD of the solution was determined at 450 nm. The data was plotted using Log (Congener Concentration) versus B/Bo (B=Sample Absorbance, Bo=Sample Blank Absorbance).
The direct EIA (Method 19) was used to evaluate sera samples taken on day 120.

The conditions of data set [3]: relative to 2,3,7,8-TCDD = 1.0; cited from earlier work.
Data set [4] concerns Hapten VII sera (polyclonal antibodies). As to the kind of experiment: Sera indirect EIA with Hapten VII sera and Competitor C. The class given is binding, mice. Conditions: day 120 sera, Competitor C, FIG. 7. The protocol:
The indirect EIA (immobilized competitor BSA conjugate) was performed as described by Karu, et al. (A. E. Karu, et al., J. Agric. Food Chem., 42, 301-309 (1994)).
The indirect EIA (Method 18) was used to evaluate sera samples taken on day 120.

Data set [5] deals with Hapten VII derived monoclonal antibody S2B1. As to the kind of experiment: Monoclonal antibody direct EIA with Competitor D enzyme conjugate. It is filed as binding. The following applies: for estimated I50: FIG. 9, 4-parameter logistic fits; for I50: FIG. 9, monoclonal antibody S2B1, text value. The protocol:
as §1
Monoclonal antibodies were derived essentially as described by Karu, et al. (A. E. Karu, et al., J. Agric. Food Chem., 42, 301-309 (1994)) using Hapten VII BSA conjugate and Competitor C BSA conjugate for the primary screen.
FIG. 9 illustrates the specificity of a direct EIA based on the Hapten VII derived monoclonal antibody S2B1 and Competitor D enzyme conjugate. Both 3,3',4,4'-tetrachlorobiphenyl and 3,3',4,4',5-pentachlorobiphenyl give ca. 1 ppb I50 values. Cross-reactions of a number of congeners which are significant Aroclor(R) consitutents are <0.001%.

Setting [6] is: Table 7, Hapten VII sera and Competitor D direct EIA.
The mark [7] stands for this setting: direct EIA, day 120 sera, Competitor C, FIG. 8.
Setting [8] is: BSA-Competitor 11 coating conjugate, FIG. 1 Plot 3 (analyte Aroclor 1248).

As to `O=C(O)COc1ccc(Cl)cc1Cl` [2,4-dichlorophenoxyacetic acid], the “I10 (mdl)” value in data set [1] is given as > 100 ppm.

In the case of `Clc1ccccc1Cl` [1,2-dichlorobenzene], in data set [1], the “I10 (mdl)” value is > 100 ppm.

With `Clc1cc(Cl)c(-c2cc(Cl)c(Cl)cc2Cl)cc1Cl` [2,2',4,4',5,5'-hexachlorobiphenyl], the I50 in data set [2] (setting [6]) is > 20,000 ppb. Moreover, the “cross reaction relative to 3,3',4,4'-tetrachlorobiphenyl” value in data set [2] (setting [7]) is < 0.05%. In data set [3], the TEF entry is “less than 0.00001”. Also, in data set [4], the “cross-reaction relative to 3,3',4,4'-tetrachlorobiphenyl” value is reported as < 0.0%.

Regarding `O=C(O)CCCCc1cc(Cl)ccc1Cl` [Competitor 11, 5-(2,5-Dichlorophenyl)pentanoic acid], in data set [1] (setting [8]), the I50 entry is recorded as “approximately 3 ppm” and the “minimum detection limit (I10)” value was “approximately 0.2 ppm”. In addition, the I50 in data set [2] (Table 6, I50 of analyte 3,3',4,4'-tetrachlorobiphenyl with the listed competitor, Hapten VII sera) is recorded as 6-8 ppb. In data set [2] (in words, Table 6), the “Assay sensitivity versus Hapten VII enzyme conjugate based assay” value was “significantly more sensitive”.

Take `COc1cccc(Cl)c1` [3-chloroanisole]: the “I10 (mdl)” value in data set [1] is > 100 ppm.

For the molecule `Clc1ccc(Cl)c(Cl)c1` [1,2,4-trichlorobenzene], in data set [1], the “I10 (mdl)” value is listed as > 100 ppm.

On to `Oc1cccc(Cl)c1` [3-chlorophenol], for which the “I10 (mdl)” value in data set [1] was > 100 ppm.

As for `Clc1cccc(Cl)c1` [1,3-dichlorobenzene], the “I10 (mdl)” value in data set [1] is on record as > 100 ppm.

Regarding `Clc1ccc(Cl)cc1` [1,4-dichlorobenzene], the “I10 (mdl)” value in data set [1] is > 100 ppm.

`Oc1cc(Cl)ccc1Cl` [2,5-dichlorophenol]: in data set [1], the “I10 (mdl)” value was > 100 ppm.

For `Clc1ccc(-c2cc(Cl)c(Cl)c(Cl)c2)cc1Cl` [BZ No. 126, 3,3',4,4',5-pentachlorobiphenyl], in data set [5], the “estimated I50” value is recorded as 1.2 ppb and the I50 result is reported as “ca. 1 ppb”. Moreover, the TEF in data set [3] is given as 0.1.

Turning to `Clc1ccc(-c2ccc(Cl)c(Cl)c2)cc1Cl` [BZ No. 77, 3,3',4,4'-tetrachlorobiphenyl], the “estimated I50” value in data set [5] is reported as 0.9 ppb. Also, the I50 entry in data set [5] is “ca. 1 ppb”; in data set [2] (setting [6]), 3 ppb; in data set [2] (setting [7]), 1.4 ppb; in data set [4], < 10 ppb. The TEF in data set [3] is listed as 0.01.
